Source: US9109004B2, “Progesterone receptor antagonists” (Bayer Intellectual Property GmbH, priority 2010, dated 2015)

Biological target: T1, human progesterone receptor A (Homo sapiens, UniProt P06401)
T1 construct: expressed in transfected cells; host or cells: SK-N-MC human neuroblastoma cells, stably transfected
T1 sequence (P06401 1-769 isoform P06401-2): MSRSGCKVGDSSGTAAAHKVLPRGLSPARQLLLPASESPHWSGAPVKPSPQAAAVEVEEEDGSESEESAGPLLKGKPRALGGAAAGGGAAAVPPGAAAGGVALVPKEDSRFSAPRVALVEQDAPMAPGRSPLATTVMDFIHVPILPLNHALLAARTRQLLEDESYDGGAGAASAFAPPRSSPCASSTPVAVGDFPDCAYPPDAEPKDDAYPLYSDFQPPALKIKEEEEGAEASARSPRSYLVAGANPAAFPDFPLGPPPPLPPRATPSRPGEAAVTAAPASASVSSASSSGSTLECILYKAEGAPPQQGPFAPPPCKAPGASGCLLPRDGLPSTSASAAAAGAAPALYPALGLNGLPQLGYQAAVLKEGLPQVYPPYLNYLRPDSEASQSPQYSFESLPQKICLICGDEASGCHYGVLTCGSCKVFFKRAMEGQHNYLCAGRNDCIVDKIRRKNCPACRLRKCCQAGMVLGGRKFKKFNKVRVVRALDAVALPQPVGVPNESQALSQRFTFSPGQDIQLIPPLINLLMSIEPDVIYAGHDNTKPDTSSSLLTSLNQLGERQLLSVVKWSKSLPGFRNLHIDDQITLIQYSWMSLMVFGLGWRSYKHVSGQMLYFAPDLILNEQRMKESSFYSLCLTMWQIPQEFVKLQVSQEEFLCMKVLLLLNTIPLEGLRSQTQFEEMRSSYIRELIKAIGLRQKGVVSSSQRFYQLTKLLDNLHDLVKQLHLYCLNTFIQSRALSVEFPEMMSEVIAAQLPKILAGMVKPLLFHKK
Experiment: Progesterone-receptor-antagonistic action in stably transfected SK-N-MC cells, MTV-LUC reporter (PR-A)
Type: cell-based
Settings: antagonistic potency vs 0.1 nmol/l promegestone, 24 hours, luciferase
Experimental: Progesterone-Receptor-Antagonistic Action in Stable Transfectants of Human Neuroblastoma Cells (SK-N-MC Cells) with the Human Progesterone A or Progesterone B Receptor and an MTV-LUC Reporter Construct
SK-N-MC cells (human neuroblastoma cells) that have been stably transfected with plasmids that express the human progesterone receptor B (pRChPR-B-neo) or the human progesterone receptor A (pRChPR-A-neo) and a reporter construct (pMMTV-LUC), were incubated for 24 hours either in the absence (negative control) or in the presence of increasing amounts of the particular test compound (0.01 nmol/l, 0.1 nmol/l, 1 nmol/l, 10 nmol/l, 100 nmol/l and 1 μmol/l), to determine the agonistic efficacy. As positive control of reporter gene induction, the cells were treated with the synthetic gestagen promegestone (0.01 nmol/l, 0.1 nmol/l, 1 nmol/l, 10 nmol/l, 100 nmol/l and 1 μmol/l). For determination of the antagonistic activity, the cells were treated with 0.1 nmol/l promegestone and additionally with increasing amounts of the particular test compound (0.01 nmol/l, 0.1 nmol/l, 1 nmol/l, 10 nmol/l, 100 nmol/l and 1 μmol/l). The activity of the reporter gene LUC (LUC=luciferase) was determined in the cell lysates and was measured as RLU (relative light units). All measured values are given as % efficacy and as EC50 or IC50 concentrations.

IC50 [µM] | SMILES
0.346 | CN(C)CCN1CCN(C(=O)c2ccc([C@H]3C[C@@]4(C)[C@@H](CC[C@@]4(O)C(F)(F)C(F)(F)F)[C@@H]4CCC5=CC(=O)CCC5=C43)cc2)CC1 [Example 47, (11β,17β)-11-[4-({4-[2-(dimethylamino)ethyl]piperazin-1-yl}carbonyl)phenyl]-17-hydroxy-17-(pentafluoroethyl)estra-4,9-dien-3-one]
0.038 | C[C@]12C[C@H](c3ccc(C(=O)N4CCCC4)cc3)C3=C4CCC(=O)C=C4CC[C@H]3[C@@H]1CC[C@@]2(O)C(F)(F)C(F)(F)F [Example 15, (11β,17β)-17-hydroxy-17-(pentafluoroethyl)-11-[4-(pyrrolidin-1-ylcarbonyl)phenyl]estra-4,9-dien-3-one]
0.0047 | C[C@]12C[C@H](c3ccc(C(=O)Nc4ccc(C(N)=O)cc4)cc3)C3=C4CCC(=O)C=C4CC[C@H]3[C@@H]1CC[C@@]2(O)C(F)(F)C(F)(F)F [Example 41, N-(4-carbamoylphenyl)-4-[(11β,17β)-17-hydroxy-3-oxo-17-(pentafluoroethyl)estra-4,9-dien-11-yl]benzamide]
0.0157 | CN(CCc1ccccn1)C(=O)c1ccc([C@H]2C[C@@]3(C)[C@@H](CC[C@@]3(O)C(F)(F)C(F)(F)F)[C@@H]3CCC4=CC(=O)CCC4=C32)cc1 [Example 50, 4-[(11β,17β)-17-hydroxy-3-oxo-17-(pentafluoroethyl)estra-4,9-dien-11-yl]-N-methyl-N-[2-(pyridin-2-yl)ethyl]benzamide]
0.0114 | COc1ccc(NC(=O)c2ccc([C@H]3C[C@@]4(C)[C@@H](CC[C@@]4(O)C(F)(F)C(F)(F)F)[C@@H]4CCC5=CC(=O)CCC5=C43)cc2)cc1 [Example 25, 4-[(11β,17β)-17-hydroxy-3-oxo-17-(pentafluoroethyl)estra-4,9-dien-11-yl]-N-(4-methoxyphenyl)benzamide]
0.00188 | COC(=O)c1ccc(NC(=O)c2ccc([C@H]3C[C@@]4(C)[C@@H](CC[C@@]4(O)C(F)(F)C(F)(F)F)[C@@H]4CCC5=CC(=O)CCC5=C43)cc2)cc1 [Example 38, methyl-4-({4-[(11β,17β)-17-hydroxy-3-oxo-17-(pentafluoroethyl)estra-4,9-dien-11-yl]benzoyl}amino)benzoate]
0.0095 | C[C@]12C[C@H](c3ccc(C(=O)N4CCc5ccccc5C4)cc3)C3=C4CCC(=O)C=C4CC[C@H]3[C@@H]1CC[C@@]2(O)C(F)(F)C(F)(F)F [Example 39, (11β,17β)-11-[4-(3,4-dihydroisoquinolin-2(1H)-ylcarbonyl)phenyl]-17-hydroxy-17-(pentafluoroethyl)estra-4,9-dien-3-one]
0.039 | C[C@]12C[C@H](c3ccc(C(=O)N4CCOCC4)cc3)C3=C4CCC(=O)C=C4CC[C@H]3[C@@H]1CC[C@@]2(O)C(F)(F)C(F)(F)F [Example 29, (11β,17β)-17-hydroxy-11-[4-(morpholin-4-ylcarbonyl)phenyl]-17-(pentafluoroethyl)estra-4,9-dien-3-one]
0.035 | CN(C)C(=O)N1CCN(C(=O)c2ccc([C@H]3C[C@@]4(C)[C@@H](CC[C@@]4(O)C(F)(F)C(F)(F)F)[C@@H]4CCC5=CC(=O)CCC5=C43)cc2)CC1 [Example 66, 4-{4-[(11β,17β)-17-hydroxy-3-oxo-17-(pentafluoroethyl)estra-4,9-dien-11-yl]benzoyl}-N,N-dimethylpiperazine-1-carboxamide]
0.0144 | C[C@]12C[C@H](c3ccc(C(=O)NCc4ccccc4)cc3)C3=C4CCC(=O)C=C4CC[C@H]3[C@@H]1CC[C@@]2(O)C(F)(F)C(F)(F)F [Example 34, N-benzyl-4-[(11β,17β)-17-hydroxy-3-oxo-17-(pentafluoroethyl)estra-4,9-dien-11-yl]benzamide]
0.0063 | C[C@]12C[C@H](c3ccc(C(=O)N4CCN(S(C)(=O)=O)CC4)cc3)C3=C4CCC(=O)C=C4CC[C@H]3[C@@H]1CC[C@@]2(O)C(F)(F)C(F)(F)F [Example 67, (11β,17β)-17-hydroxy-11-(4-{[4-(methylsulphonyl)piperazin-1-yl]carbonyl}phenyl)-17-(pentafluoroethyl)estra-4,9-dien-3-one]
0.0027 | C[C@]12C[C@H](c3ccc(C(=O)N4CCN(C(=O)c5ccccc5)CC4)cc3)C3=C4CCC(=O)C=C4CC[C@H]3[C@@H]1CC[C@@]2(O)C(F)(F)C(F)(F)F [Example 65, (11β,17β)-11-{4-[(4-benzoylpiperazin-1-yl)carbonyl]phenyl}-17-hydroxy-17-(pentafluoroethyl)estra-4,9-dien-3-one]
0.029 | COc1cccc(CNC(=O)c2ccc([C@H]3C[C@@]4(C)[C@@H](CC[C@@]4(O)C(F)(F)C(F)(F)F)[C@@H]4CCC5=CC(=O)CCC5=C43)cc2)c1 [Example 53, 4-[(11β,17β)-17-hydroxy-3-oxo-17-(pentafluoroethyl)estra-4,9-dien-11-yl]-N-(3-methoxybenzyl)benzamide]
0.01 | C[C@]12C[C@H](c3ccc(C(=O)Nc4ccccn4)cc3)C3=C4CCC(=O)C=C4CC[C@H]3[C@@H]1CC[C@@]2(O)C(F)(F)C(F)(F)F [Example 11, 4-[(11β,17β)-17-hydroxy-3-oxo-17-(pentafluoroethyl)estra-4,9-dien-11-yl]-N-(pyridin-2-yl)benzamide]
0.00698 | CN(Cc1ccncc1)C(=O)c1ccc([C@H]2C[C@@]3(C)[C@@H](CC[C@@]3(O)C(F)(F)C(F)(F)F)[C@@H]3CCC4=CC(=O)CCC4=C32)cc1 [Example 33, 4-[(11β,17β)-17-hydroxy-3-oxo-17-(pentafluoroethyl)estra-4,9-dien-11-yl]-N-methyl-N-(pyridin-4-ylmethyl)benzamide]
0.051 | C[C@]12C[C@H](c3ccc(C(=O)NCc4ccncc4)cc3)C3=C4CCC(=O)C=C4CC[C@H]3[C@@H]1CC[C@@]2(O)C(F)(F)C(F)(F)F [Example 21, 4-[(11β,17β)-17-hydroxy-3-oxo-17-(pentafluoroethyl)estra-4,9-dien-11-yl]-N-(pyridin-4-ylmethyl)benzamide]
0.117 | C[C@]12C[C@H](c3ccc(C(=O)N4CCN(Cc5ccccc5)CC4)cc3)C3=C4CCC(=O)C=C4CC[C@H]3[C@@H]1CC[C@@]2(O)C(F)(F)C(F)(F)F [Example 40, (11β,17β)-11-{4-[(4-benzylpiperazin-1-yl)carbonyl]phenyl}-17-hydroxy-17-(pentafluoroethyl)estra-4,9-dien-3-one]
0.0005 | C[C@]12C[C@H](c3ccc(C(=O)Nc4ccccc4C(=O)O)cc3)C3=C4CCC(=O)C=C4CC[C@H]3[C@@H]1CC[C@@]2(O)C(F)(F)C(F)(F)F [Example 76, 2-({4-[(11β,17β)-17-Hydroxy-3-oxo-17-(pentafluoroethyl)estra-4,9-dien-11-yl]benzoyl}amino)benzoic acid]
0.0016 | C[C@]12C[C@H](c3ccc(C(=O)NCCc4ccccn4)cc3)C3=C4CCC(=O)C=C4CC[C@H]3[C@@H]1CC[C@@]2(O)C(F)(F)C(F)(F)F [Example 61, 4-[(11β,17β)-17-hydroxy-3-oxo-17-(pentafluoroethyl)estra-4,9-dien-11-yl]-N-[2-(pyridin-2-yl)ethyl]benzamide]
0.0073 | C[C@]12C[C@H](c3ccc(C(=O)NC4CC4)cc3)C3=C4CCC(=O)C=C4CC[C@H]3[C@@H]1CC[C@@]2(O)C(F)(F)C(F)(F)F [Example 42, N-cyclopropyl-4-[(11β,17β)-17-hydroxy-3-oxo-17-(pentafluoroethyl)estra-4,9-dien-11-yl]benzamide]
0.021 | C[C@]12C[C@H](c3ccc(C(=O)NCCN4CCCC4)cc3)C3=C4CCC(=O)C=C4CC[C@H]3[C@@H]1CC[C@@]2(O)C(F)(F)C(F)(F)F [Example 54, 4-[(11β,17β)-17-hydroxy-3-oxo-17-(pentafluoroethyl)estra-4,9-dien-11-yl]-N-[2-(pyrrolidin-1-yl)ethyl]benzamide]
